Laboratory results as given in patent US20250026725A1, “HYDRATE CRYSTAL OF 5-CHLORO-4-(3-CHLORO-4- METHYLPHENYL)-1H-IMIDAZOLE-2-CARBONITRILE” (ISHIHARA SANGYO KAISHA, LTD., priority 2021, published 2025).

Experiment: Test of triboelectrification properties
Format: physicochemical
Settings: 25° C. and 50% RH
Procedure: First, the sample was loaded into a levelled stainless steel petri dish having φ50 mm×a height of 15 mm, and then it was statically eliminated with a static eliminator (STABLO AP, manufactured by SHIMADZU CORPORATION). The surface potential of the sample was measured with a surface electrometer (SV-77A, manufactured by NIPPON STATIC CO., LTD.) that had previously been zero-point adjusted, to confirm that it was statically eliminated (within −1 to +1 kV). Next, the sample surface of the petri dish loaded with the sample was scraped back and forth 20 times with a stainless steel metal plate for 10 seconds to charge the sample surface. After that, the petri dish loaded with the charged sample was placed on a metal plate (30 cm×30 cm) connected with a ground wire. The surface potential of the sample was measured over time for 20 minutes with the above surface electrometer. The triboelectrification properties were evaluated from the initial surface potential. In addition, the retention rate was calculated from the surface potential after 20 minutes and the initial surface potential to evaluate charge attenuation properties. Note that the test was conducted in an electrostatic measurement chamber (Tabai ESPEC CORP.) set to 25° C. and 50% RH, and the surface potential measurement was conducted at a distance of 1 cm from the sample surface.

Electrification voltage (0 minutes after charging, listed as Anhydrate crystal): −5.42 kv
Electrification voltage (20 minutes after charging, listed as Anhydrate crystal): −5.39 kv
Decrease of potential retention rate (at 20 minutes later): almost no change
Retention rate (surface potential after 20 minutes vs initial, listed as Anhydrate crystal): 99.4%
Structure (SMILES): Cc1ccc(-c2nc(C#N)[nH]c2Cl)cc1Cl [Anhydrous crystal, 5-chloro-4-(3-chloro-4-methylphenyl)-1H-imidazole-2-carbonitrile]
